Tests used:
[1] = compound: CCN1CCN(Cc2ccc(Nc3ncc(F)c(-c4cc(F)c5nc(C)n(C(C)C)c5c4)n3)nc2)CC1; assay: increase in dead-cell fraction, 72 h; higher = more death;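 note: breast cancer cell lines in 384-well plates, stained with Hoechst plus LIVE/DEAD far red dye and imaged, cells above an LDR intensity threshold counted dead, Hoechst-negative corpses included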
[2] = compound: C=CC(=O)Nc1ccc(C(=O)Nc2[nH]nc3c2CN(C(=O)N[C@H](CN(C)C)c2ccccc2)C3(C)C)cc1 [YKL-5-124]; assay: as above
[3] = compound: CC(=O)c1c(C)c2cnc(Nc3ccc(N4CCN(CCOCCOCCOCCNC(=O)COc5cccc6c5C(=O)N(C5CCC(=O)NC5=O)C6=O)CC4)cn3)nc2n(C2CCCC2)c1=O [BSJ-03-123]; assay: as above
[4] = compound: CCOc1cc2ncc(C#N)c(Nc3ccc(OCc4ccccn4)c(Cl)c3)c2cc1NC(=O)/C=C/CN(C)C [Neratinib/HKI272]; assay: as above
[5] = compound: CN(C)C(=O)c1cc2cnc(Nc3ccc(N4CCNCC4)cn3)nc2n1C1CCCC1 [LEE011/Ribociclib]; assay: as above
[6] = compound: CN1CC[C@H](c2c(O)cc(O)c3c(=O)cc(-c4ccccc4Cl)oc23)[C@H](O)C1 [Flavopiridol]; assay: as above
[7] = compound: CN(C)C/C=C/C(=O)Nc1ccc(C(=O)Nc2cccc(Nc3ncc(Cl)c(-c4c[nH]c5ccccc45)n3)c2)cc1 [THZ1]; assay: as above
[8] = compound: CN(C)C/C=C/C(=O)Nc1ccc(C(=O)N2CCC[C@@H](Nc3ncc(Cl)c(-c4c[nH]c5ccccc45)n3)C2)cc1 [THZ531]; assay: as above
[9] = compound: CCc1cnn2c(NCc3ccc[n+]([O-])c3)cc(N3CCCC[C@H]3CCO)nc12; assay: as above
[10] = compound: CC(=O)c1c(C)c2cnc(Nc3ccc(N4CCNCC4)cn3)nc2n(C2CCCC2)c1=O; assay: as above
[11] = compound: CCNC(=O)c1noc(-c2cc(C(C)C)c(O)cc2O)c1-c1ccc(CN2CCOCC2)cc1 [Luminespib/NVP-AUY922]
[12] = compound: CN1CCN(CCOc2cc(OC3CCOCC3)c3c(Nc4c(Cl)ccc5c4OCO5)ncnc3c2)CC1 [Saracatinib/AZD0530]
[13] = compound: CN(C)C/C=C/C(=O)Nc1ccc(O[C@@H]2CCC[C@@H](Nc3ncc(Cl)c(-c4c[nH]c5ccccc45)n3)C2)cc1 [BSJ-01-175]
[14] = compound: CN(C)C/C=C/C(=O)NC1=CC=C(C=C1)C(=O)NC2=CC=CC(=C2)NC3=NC=NC(=C3)C4=CNC5=CC=CC=C54 [THZ-P1-2]
[15] = compound: Cc1cc(Nc2ncc(Cl)c(Nc3ccccc3S(=O)(=O)C(C)C)n2)c(OC(C)C)cc1C1CCNCC1 [Ceritinib/LDK378]
[16] = compound: CCCCOc1c(C(=O)c2c(F)cc(C)cc2F)c[nH]c2nncc1-2
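Throughout, for GR50, 72 h: breast cancer and non-malignant breast epithelial cell lines, Deep Dye Drop or Dye Drop imaging, nine half-log doses, GR normalized to time-zero plates and DMSO-only controls.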

ZR751
increase in dead-cell fraction ([1]; 0.001 µM): 0.0013 | increase in dead-cell fraction ([1]; 0.003162 µM): 0.0092 | increase in dead-cell fraction ([1]; 0.01 µM): 0.0042 | increase in dead-cell fraction ([1]; 0.03162 µM): 0.0075 | increase in dead-cell fraction ([1]; 0.1 µM): 0.0148 | increase in dead-cell fraction ([1]; 0.3162 µM): 0.021 | increase in dead-cell fraction ([1]; 1 µM): 0.0189 | increase in dead-cell fraction ([1]; 3.162 µM): 0.0151 | increase in dead-cell fraction ([1]; 10 µM): 0.0172 | increase in dead-cell fraction ([2]; 0.001 µM): 0.0021 | increase in dead-cell fraction ([2]; 0.003162 µM): 0.0092 | increase in dead-cell fraction ([2]; 0.01 µM): 0.0198 | increase in dead-cell fraction ([2]; 0.03162 µM): 0.0185 | increase in dead-cell fraction ([2]; 0.1 µM): 0.014 | increase in dead-cell fraction ([2]; 0.3162 µM): 0.0125 | increase in dead-cell fraction ([2]; 1 µM): 0.0157 | increase in dead-cell fraction ([2]; 3.162 µM): 0.0241 | increase in dead-cell fraction ([2]; 10 µM): 0.0249 | increase in dead-cell fraction ([3]; 0.001 µM): -0.0037 | increase in dead-cell fraction ([3]; 0.003162 µM): -0.0033 | increase in dead-cell fraction ([3]; 0.01 µM): -0.0001 | increase in dead-cell fraction ([3]; 0.03162 µM): -0.0011 | increase in dead-cell fraction ([3]; 0.1 µM): 0.0026 | increase in dead-cell fraction ([3]; 0.3162 µM): -0.0001 | increase in dead-cell fraction ([3]; 1 µM): 0.0048 | increase in dead-cell fraction ([3]; 3.162 µM): 0.004 | increase in dead-cell fraction ([3]; 10 µM): 0.0165 | increase in dead-cell fraction ([4]; 0.0003162 µM): -0.0059 | increase in dead-cell fraction ([4]; 0.001 µM): -0.0002 | increase in dead-cell fraction ([4]; 0.003162 µM): -0.0001 | increase in dead-cell fraction ([4]; 0.01 µM): -0.0032 | increase in dead-cell fraction ([4]; 0.03162 µM): -0.0037 | increase in dead-cell fraction ([4]; 0.1 µM): -0.0037 | increase in dead-cell fraction ([4]; 0.3162 µM): 0 | increase in dead-cell fraction ([4]; 1 µM): 0.0004 | increase in dead-cell fraction ([4]; 3.162 µM): 0.001 | increase in dead-cell fraction ([5]; 0.001 µM): 0.001 | increase in dead-cell fraction ([5]; 0.003162 µM): 0.0005 | increase in dead-cell fraction ([5]; 0.01 µM): 0.0005 | increase in dead-cell fraction ([5]; 0.03162 µM): -0.0023 | increase in dead-cell fraction ([5]; 0.1 µM): 0.0065 | increase in dead-cell fraction ([5]; 0.3162 µM): 0.0036 | increase in dead-cell fraction ([5]; 1 µM): 0.0073 | increase in dead-cell fraction ([5]; 3.162 µM): 0.0082 | increase in dead-cell fraction ([5]; 10 µM): 0.0077 | increase in dead-cell fraction ([6]; 0.0001 µM): -0.0019 | increase in dead-cell fraction ([6]; 0.0003162 µM): -0.0035 | increase in dead-cell fraction ([6]; 0.001 µM): 0.0015 | increase in dead-cell fraction ([6]; 0.003162 µM): 0.0014 | increase in dead-cell fraction ([6]; 0.01 µM): -0.0008 | increase in dead-cell fraction ([6]; 0.03162 µM): -0.0022 | increase in dead-cell fraction ([6]; 0.1 µM): 0.0001 | increase in dead-cell fraction ([6]; 0.3162 µM): 0.0129 | increase in dead-cell fraction ([6]; 1 µM): 0.144 | increase in dead-cell fraction ([7]; 0.0001 µM): -0.0022 | increase in dead-cell fraction ([7]; 0.0003162 µM): -0.0022 | increase in dead-cell fraction ([7]; 0.001 µM): 0.0059 | increase in dead-cell fraction ([7]; 0.003162 µM): -0.0001 | increase in dead-cell fraction ([7]; 0.01 µM): 0.002 | increase in dead-cell fraction ([7]; 0.03162 µM): 0.0035 | increase in dead-cell fraction ([7]; 0.1 µM): 0.0005 | increase in dead-cell fraction ([7]; 0.3162 µM): 0.0111 | increase in dead-cell fraction ([7]; 1 µM): 0.0673 | increase in dead-cell fraction ([8]; 0.0001 µM): -0.0027 | increase in dead-cell fraction ([8]; 0.0003162 µM): 0.0028 | increase in dead-cell fraction ([8]; 0.001 µM): -0.0004 | increase in dead-cell fraction ([8]; 0.003162 µM): 0.0013 | increase in dead-cell fraction ([8]; 0.01 µM): -0.0036 | increase in dead-cell fraction ([8]; 0.03162 µM): 0.0009 | increase in dead-cell fraction ([8]; 0.1 µM): 0.0019 | increase in dead-cell fraction ([8]; 0.3162 µM): 0.0013 | increase in dead-cell fraction ([8]; 1 µM): 0.151 | increase in dead-cell fraction ([9]; 0.0001 µM): -0.0029 | increase in dead-cell fraction ([9]; 0.0003162 µM): -0.0028 | increase in dead-cell fraction ([9]; 0.001 µM): -0.0042 | increase in dead-cell fraction ([9]; 0.003162 µM): 0.0003 | increase in dead-cell fraction ([9]; 0.01 µM): -0.0059 | increase in dead-cell fraction ([9]; 0.03162 µM): 0.008 | increase in dead-cell fraction ([9]; 0.1 µM): 0.22 | increase in dead-cell fraction ([9]; 0.3162 µM): 0.21 | increase in dead-cell fraction ([9]; 1 µM): 0.202 | increase in dead-cell fraction ([10]; 0.0003162 µM): -0.0023 | increase in dead-cell fraction ([10]; 0.001 µM): -0.0015 | increase in dead-cell fraction ([10]; 0.003162 µM): -0.0035 | increase in dead-cell fraction ([10]; 0.01 µM): 0.0001 | increase in dead-cell fraction ([10]; 0.03162 µM): 0.002 | increase in dead-cell fraction ([10]; 0.1 µM): -0.0025 | increase in dead-cell fraction ([10]; 0.3162 µM): 0.0083 | increase in dead-cell fraction ([10]; 1 µM): 0.008 | increase in dead-cell fraction ([10]; 3.162 µM): 0.0189 | GR50, 72 h [11]: 0.0228 µM | GR50, 72 h [12]: 3.66 µM | GR50, 72 h [13]: 3.46 µM | GR50, 72 h [14]: 8.94 µM | GR50, 72 h [15]: 3.79 µM | GR50, 72 h [16]: > 10 µM
